The record followed here is PubChem BioAssay (NCI).

“And” between values parts separate entries of the source, which are not always exact repeats. Equal entries are not always repeated.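 Exposure lasted 48 hours, with cells grown in 96-well plates and compounds tested at five concentrations. GI50 marks 50% less growth. TGI: concentration producing complete growth inhibition.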 Bounds are passed on as bounds.

What all share (assay): NCI anticancer screen, dose series, 48 h
Test [1] has as its system CAKI-1 renal.
Test [2] relates to COLO 205 colon.
Test [3] concerns M14 melanoma.
In test [4] the test system is NCI/ADR-RES ovarian.
The subject of test [5] is OVCAR-4 ovarian.
In test [6] the test system is RPMI-8226 leukemia.
Test [7] has as its system SW-620 colon.
Test [8] deals with TK-10 renal.
Test [9] has as its system UACC-62 melanoma.
In test [10] the test system is CCRF-CEM leukemia.

Turning to `COc1ccc(C[C@H](N)C(=O)N[C@@H]2[C@@H](CO)OC(n3cnc4c(N(C)C)ncnc43)[C@@H]2O)cc1` (stereo partly drawn), the GI50 in [1] is 4.44 µM; in [2], 0.218 µM; in [3], 0.647 µM; in [4] it was 42.7 µM; in [5] it was 0.194 µM; in test [6], 0.292 µM. In addition, the GI50 in test [9] is 0.404 µM. In addition, the TGI in test [1] turned out to be 16.6 µM; in [2] it was 0.756 µM; in [3] it was 1.4 µM; in test [4], 50 µM; in test [5] it was 0.926 µM; in [6], 2.04 µM. Further, the TGI was 0.792 µM in test [7], 1.38 µM in test [8] and 1.06 µM in [9].

Take `Cc1c2cc[n+](C)cc2c(C)c2c1[nH]c1ccc(Oc3ccccc3)cc12`: the TGI in test [1] is more than 100 µM; in [10], 18.6 µM and 22.9 µM; in test [2], 5.25 µM; in test [3] it was > 61.5 µM and 40.1 µM; in test [5], 36.5 µM and > 68.7 µM; in test [6], 23.8 µM and 16.1 µM. Moreover, the TGI was > 37.9 µM and 40.6 µM in [7]; > 71.2 µM and 30.2 µM in test [8]; 7.5 µM and 7.54 µM in [9]. Also, the GI50 in [8] is 1.55 µM and 3.43 µM.

Turning to `Cn1ncc2c(c1=O)Nc1ccccc1S2(=O)=O`, the TGI was more than 100 µM in [1]; more than 100 µM in [10]; more than 100 µM in test [2]; more than 100 µM in [3]; more than 100 µM in test [5]; 97.6 µM in [6]. Moreover, the TGI in [7] is 32.4 µM; in test [8] it was more than 100 µM; in [9], more than 100 µM.

For the molecule `Cc1cccc2c1Oc1ncccc1C2NC(=O)CN(C)C` (stereo not drawn), the TGI in test [10], in [3], in test [4], in test [5], in test [7] and in test [8] was more than 10 µM in each case. This molecule gave a TGI in [9] of more than 10 µM.

Consider `NC1=NN(c2ccccc2)C(=O)C1/C(=N\NC(=O)c1cc2ccccc2cc1O)C(=O)Nc1ccc(Cl)cc1` (stereo not drawn), for which the TGI in [1] was more than 100 µM; in test [10], 24.4 µM; in test [2], 49.7 µM; in test [3], 74.7 µM; in test [5] it was more than 100 µM; in test [6], 96.1 µM. Further, the TGI in [7] was more than 100 µM; in test [8], more than 100 µM; in test [9], 66.2 µM.

Take `CCNc1nc(-c2ccc(Cl)c(OC)c2)c(-c2ccnc(NCCNS(=O)(=O)c3ccc(Cl)cc3)n2)s1`: the GI50 in test [10] is 2.83 µM; in test [2], 2.32 µM; in test [3], 3.82 µM; in [4], 3.51 µM; in test [5], 3.82 µM; in [6], 2.93 µM. For the same molecule, the GI50 in [7] was 4.22 µM; in test [8], 4.09 µM; in test [9] it was 2.11 µM. In addition, the TGI in [10] was more than 100 µM; in test [2] it was 6.61 µM; in test [3], more than 100 µM; in test [4], more than 100 µM; in test [5] it was more than 100 µM; in test [6] it was 8.39 µM. Further, the TGI in test [7] is more than 100 µM; in [8] it was 41.8 µM; in test [9] it was 5.49 µM.

For the molecule `O=[N+]([O-])c1cccc(C2=NOC3CCCC23)c1` (stereo not drawn), the TGI in test [1], in test [10], in test [2], in test [3], in [5] and in test [6] was more than 100 µM in each case. For the same molecule, the TGI in test [7], in [8] and in test [9] was more than 100 µM each time.

For `C=CCCC1(CCP(=O)(c2ccccc2)c2ccccc2)OCCO1`, the TGI in [10], in [2], in [3], in test [4], in [6] and in [7] was more than 100 µM throughout. Further, the TGI in test [8] and in test [9] was more than 100 µM throughout.

On to `COC(=O)CCSC(=O)Nc1ccccc1Cl`, for which the TGI in test [1], in [10], in test [2], in test [3], in test [5] and in [6] was more than 100 µM in each case. For the same molecule, the TGI in [7], in test [8] and in test [9] was more than 100 µM throughout.

As for `CN(C)c1ccc(/C=C2\Cc3ccccc3C2=O)cc1Br`, the TGI was more than 100 µM in test [1]; more than 100 µM in test [10]; more than 100 µM in test [2]; more than 100 µM in test [3]; more than 100 µM in test [5]; 84.3 µM in test [6]. For the same molecule, the TGI in test [7], in [8] and in test [9] was more than 100 µM each time.

Regarding `COc1cc(COC(=O)NC(Cc2cccs2)C(=O)O)c([N+](=O)[O-])cc1OC` (stereo not drawn), the TGI in test [10], in test [2], in test [3], in test [4], in test [6] and in test [7] was more than 100 µM throughout. In addition, the TGI in test [8] and in [9] was more than 100 µM in each case.

On to `O=C1COc2cc3c(cc2N1)SCC(=O)N3`, for which the TGI in test [1], in test [10], in test [2], in test [3], in [5] and in [6] was more than 100 µM in each case. For the same molecule, the TGI in test [7], in test [8] and in [9] was more than 100 µM in each case.

In the case of `COC(=O)C1=C(C)C(=O)C2(CCCCCC2C(=O)OC)C1` (stereo not drawn), the TGI in test [1], in test [10], in test [2], in [3], in [5] and in [6] was more than 100 µM each time. The TGI in test [7], in test [8] and in test [9] was more than 100 µM each time.

Turning to `O=c1cccccc1[O-].O=c1cccccc1[O-].O=c1cccccc1[O-].[Dy+3]`, the TGI was more than 100 µM in test [1]; 55.2 µM in [10]; more than 100 µM in test [3]; more than 100 µM in [5]; 76.2 µM in [6]; more than 100 µM in test [7]. In addition, the TGI in test [8] and in test [9] was more than 100 µM each time.

For the molecule `CC(=O)OCC1OC(OC(C)=O)C(NC#N)C(OC(C)=O)C1OC(C)=O` (stereo not drawn), the TGI in test [1], in test [10], in test [2], in test [3], in test [5] and in [6] was more than 100 µM throughout. Besides, the TGI in test [7], in [8] and in test [9] was more than 100 µM in each case.

For `NC(=O)NC(=O)C1CCC(=O)N1S(=O)(=O)c1ccc(Cl)cc1` (stereo not drawn), the TGI in test [1], in test [10], in [2], in test [3], in [5] and in test [6] was more than 100 µM in each case. Further, the TGI in test [7], in test [8] and in [9] was more than 100 µM throughout.

Take `CCOC(=O)C1C(=O)C(=O)N2CCc3c([nH]c4ccccc34)C12` (stereo not drawn): the TGI in [1], in test [10], in [2], in test [3], in test [5] and in test [6] was more than 100 µM in each case. Further, the TGI in [7], in test [8] and in [9] was more than 100 µM throughout.

On to `COC(=O)N/N=C(\c1nc2ccc(Cl)cc2[nH]c1=O)C(O)c1ccc([N+](=O)[O-])cc1` (stereo not drawn), for which the TGI in test [1], in [10], in test [2], in test [3], in test [5] and in test [6] was more than 100 µM throughout. The TGI in [7] and in test [9] was more than 100 µM each time.

Regarding `CCn1c(SC)nnc1-c1cc2c([nH]c3ccccc32)c(-c2cccc(O)c2)n1`, the GI50 in test [10] is 1.57 µM; in test [2] it was 9.49 µM; in test [3] it was 1.48 µM; in [4], 3.71 µM; in test [5] it was 2.75 µM; in test [6], 1.58 µM. Moreover, the GI50 is 1.44 µM in test [7], 2.68 µM in test [8] and 1.27 µM in test [9]. Moreover, the TGI in test [10] is more than 100 µM; in test [2], 27.5 µM; in test [3], 12.5 µM; in test [4] it was 36.1 µM; in [5] it was 13 µM; in [6] it was 10.2 µM. Besides, the TGI in test [7] was more than 100 µM; in [8] it was 13.1 µM; in test [9] it was 8.71 µM.

`CCCNc1ncnc2c1cnn2C`: the TGI in [1], in test [10], in test [2], in test [3], in test [5] and in test [6] was more than 100 µM each time. The TGI in test [7], in [8] and in [9] was more than 100 µM throughout.

Regarding `Cc1[nH]n(C(=O)c2ccc(Cl)cc2)c(=O)c1/C=C1\C(O)=CC(=O)c2ccccc21`, the TGI in [1], in test [10], in test [2], in test [3], in test [5] and in [6] was more than 100 µM each time. The TGI in test [7], in [8] and in test [9] was more than 100 µM throughout.

Take `CCOC(=O)NC/C=C/CO`: the TGI in test [1], in test [10], in test [2], in [3], in [5] and in [6] was more than 100 µM in each case. Besides, the TGI in test [7], in [8] and in [9] was more than 100 µM in each case.

With `CCOC(=O)/C(=C/c1ccc[nH]1)P(=O)(OCC)OCC`, the TGI in test [1], in test [10], in [2], in test [3], in [5] and in test [6] was more than 100 µM in each case. Further, the TGI in test [7], in [8] and in test [9] was more than 100 µM in each case.

Turning to `CCOC(=O)c1c(/C=N\Nc2ccccc2)nc2ccccc2c1-c1ccccc1`, the TGI in test [1] was more than 100 µM; in test [10] it was 88 µM; in [2] it was 53 µM; in test [3], more than 100 µM; in test [5], more than 100 µM; in test [6], 83.8 µM. Also, the TGI is more than 100 µM in [7], more than 100 µM in test [8] and 76.9 µM in [9].

In the case of `Cc1c(C(=O)C/C(=N/NC(=O)CC#N)C(N)=O)[n+](=O)c2ccccc2n1[O-]`, the TGI in test [1], in test [10], in test [2], in [3], in test [5] and in test [6] was more than 100 µM in each case. Further, the TGI in [7] is 34.5 µM; in test [8], more than 100 µM; in test [9], more than 100 µM.

On to `Nc1ccc2ncc(Nc3ccc(Cl)c(Cl)c3)nc2c1`, for which the TGI in [1] is 67.3 µM; in [10], 65.6 µM; in test [2], 32.9 µM; in test [3], 94.1 µM; in [5], more than 100 µM; in [6], more than 100 µM. Moreover, the TGI in test [7] was more than 100 µM; in [8], more than 100 µM; in [9], 50.9 µM.

In the case of `O=C(/C=C/c1ccc(OCC(=O)N2CCN(c3ccccc3)CC2)cc1)c1ccccc1`, the TGI in test [1] is more than 100 µM; in [10], more than 25.6 µM; in [2], more than 100 µM; in test [3], more than 100 µM; in test [5], more than 100 µM; in test [6], more than 27.2 µM. In addition, the TGI in test [7] is more than 28.4 µM; in test [8] it was more than 79.4 µM; in test [9], more than 59.7 µM.
